No end group written: not given here.
Legend:
[1] = target: T1, σ1R-NR1 C1 (Mus musculus, UniProt O55242); experiment: In vitro σ1R-NR1 C1 association of recombinant proteins (Western blot); type: biochemical, murine; settings: increasing concentrations; 30 min RT; vs control without ligand
T1 construct: The coding region of the full-length murine σ1R (AF004927); GST (N, cleaved yes); made in house; host or cells: E. coli BL21 (KRX)
Protocol: (§1) Figure 7 Effect of β-End 1–31, ^αN-acetyl β-End 1–31 and their N-terminal derivatives on σ1R-σ2R, σ1R-NR1 C1 and σ1R-BiP associations. Amino acid sequence of β-End 1–31 showing derivatives 1–26 and 1–27. (A) HaloLink-attached σ2Rs were incubated for 30 min at RT in the presence of σ1Rs (100 nM) in 300 μL of 50 mM Tris-HCl (pH 7.4), 0.2% CHAPS, and 2.5 mM CaCl2. After removing the unbound σ1R proteins, the effects of increasing the peptide concentrations on σ1R-σ2R associations were studied. At the end of the incubation, protein complexes bound to HaloLink-σ2R were obtained by centrifugation, washed three times, solubilized in 2× Laemmli buffer containing β-mercaptoethanol, resolved by SDS-PAGE, and analyzed by Western blotting (for more details, see Section 4). This protocol was also used to assess the effect of ligands on (B) σ1R-NR1 C1 and (C) σ1R-BiP associations. Data were compared to that of the control, which was obtained in the absence of ligands. (A–C) Data are the mean ± SD, n = 3. (D) The β-End 1–31 structural models were predicted by Novafold (DNASTAR Lasergene protein v.17, Inc., Madison, WI, USA). Ribbon model: The 3D structure, charge distribution and hydrophobicity map of β-End 1–31 are shown. Positive charges are shown in red and negative charges in blue. Polar surfaces are shown in yellow, and nonpolar surfaces are shown in orange. Linear model: the opioid (1–5) and flexible region (8–11) sequences are shown in green and orange, respectively, and the amphiphilic helix (15–25) is shown in pink.
(§2) The recombinant σ1R (100 nM) was incubated either with Haloprotein (negative control) or together with the immobilized σ2R, NR1 C0-C1-C2 or BiP proteins in 300 µL of a buffer containing 50 mM Tris-HCl (pH 7.4) and 0.2% CHAPS in the presence of 2.5 mM CaCl2 for 30 min at RT. After removal of the unbound σ1R, the agarose-attached complexes were incubated for 30 min with rotation at RT in the presence of increasing concentrations of the ligands in a final reaction volume of 300 µL [50 mM Tris-HCl (pH 7.4), 2.5 mM CaCl2 and 0.2% CHAPS]. Ligands were usually dissolved in aqueous solutions; however, when an organic solvent such as DMSO was required to incorporate, e.g., pregnenolone sulfate, the solvent remained below 1% in the assay buffer. Agarose pellets containing the bound proteins were obtained by centrifugation, washed and resuspended thrice in the presence of 2.5 mM CaCl2, solubilized in 2× Laemmli buffer plus β-mercaptoethanol, and analyzed by Western blotting.
(§3) Because all the assays were performed with recombinant proteins, the immune signals provided a single band of the expected size, which was used for the subsequent densitometry analysis. Accordingly, no other regions of the blots provided information and were routinely excluded from the analysis.
Figure S8. Effect of the physiological and nonphysiological sequences of β-End 1-31 and classical σ1R ligands on BiP-σ1R, σ2R-σ1R and NR1 C1-σ1R associations . […]
D) Agarose-NR1 C1 loaded with […]
σ1Rs were incubated in the absence (control) and with nonphysiological derivatives of β-End 1-31. A-D) The σ1Rs that remained attached to the agarose complexes were evaluated by Western blotting. The […]
(§4) (1 picture or pasted object on this page, not shown here)
Figure S9. Effect of σ1R agonist/antagonist ligands on σ1R-NR1 C1 associations. Θ-Agarose-NR1 C1 was loaded with recombinant σ1Rs. After unbound σ1R proteins were removed, the complexes were incubated with (A) 1 nM β-End 1-31, (B) αN-acetyl β-End 1-31, (C-D) β-End 28-31 in the absence (black columns) and presence of (A) 10 nM or (B-D) increasing concentrations of competing σ1R ligands as indicated. The σ1Rs that remained attached to the Θ-σ2Rs were evaluated by Western blotting. The […]
Prog is progesterone; PregSulfate is pregnenolone sulfate; Nac is […]

[2] = target: T2, σ1R-BiP (Mus musculus, UniProt O55242); experiment: In vitro σ1R-BiP association of recombinant proteins (Western blot); type: biochemical; settings: for effect on σ1R-BiP association: increasing concentrations, 30 min RT, vs control without ligand; for activity at σ1R-BiP against agonists / β-End 1–31: 1 nM β-End 1–31 with increasing competitor (Figure S10)
T2 construct: The coding region of the full-length murine σ1R (AF004927); GST (N, cleaved yes); host or cells: E. coli BL21 (KRX) for σ1R
Protocol: as §1, §2, §3
Figure S8. Effect of the physiological and nonphysiological sequences of β-End 1-31 and classical σ1R ligands on BiP-σ1R, σ2R-σ1R and NR1 C1-σ1R associations . Agarose-BiP was loaded with σ1Rs, and after the unbound σ1Rs were removed, the agarose-BiP-σ1R complexes were incubated in the absence (control) and presence of increasing concentrations of (A) β-End 1-31 C-terminal physiological derivatives and (B) classical σ1R ligands. C) Agarose-σ2R loaded with σ1Rs was incubated in the absence (control) and with nonphysiological derivatives of β-End 1-31. D) Agarose-NR1 C1 loaded with σ1Rs were incubated in the absence (control) and with nonphysiological derivatives of β-End 1-31. A-D) The σ1Rs that remained attached to the agarose complexes were evaluated by Western blotting. The […]
as §4
Figure S10. Effect of σ1R agonist/antagonist ligands on σ1R-BiP associations. Agarose-attached BiP proteins were incubated for 30 min in the presence of recombinant σ1R (100 nM) proteins in 300 μL of 50 mM Tris-HCl (pH 7.4), 0.2% CHAPS, and 2.5 mM CaCl2. After the unbound σ1R proteins were […]

[3] = target: σ1R-σ2R (Mus musculus, UniProt O55242); experiment: In vitro σ1R-σ2R association of recombinant proteins (HaloLink-σ2R, Western blot); type: biochemical, murine; design: The coding region of the full-length murine σ1R (AF004927); GST (N, cleaved yes); made in house; host or cells: E. coli BL21 (KRX); settings: increasing concentrations; 30 min RT; vs control without ligand
Protocol: as §1, §2, §3
Figure S7. Effect of σ1R agonist/antagonist ligands on σ1R-σ2R heterodimers. (A-C) Agarose (Θ)- attached σ2Rs captured recombinant σ1Rs. After removing unbound σ1R proteins, the Θ-σ2R.σ1R complexes were incubated with a ﬁxed concentration of a selected L1 ligand (indicated in brackets) in the absence and presence of increasing concentrations of competing σ1R ligands as indicated. The σ1Rs that remained attached to the Θ-σ2Rs were evaluated by Western blotting. * Signiﬁcant differences with respect to the control group that was incubated without L1 ligands. ANOVA followed by the Holm-Sidak multiple comparisons test, p < 0.05. For details, see Methods and Figure 6A. Representative blots are […]
Figure S8. Effect of the physiological and nonphysiological sequences of β-End 1-31 and classical σ1R ligands on BiP-σ1R, σ2R-σ1R and NR1 C1-σ1R associations . Agarose-BiP was loaded with σ1Rs, and after the unbound σ1Rs were removed, the agarose-BiP-σ1R complexes were incubated in the absence (control) and presence of increasing concentrations of (A) β-End 1-31 C-terminal physiological derivatives and (B) classical σ1R ligands. C) Agarose-σ2R loaded with σ1Rs was incubated in the […]

T1 sequence (O55242 whole entry): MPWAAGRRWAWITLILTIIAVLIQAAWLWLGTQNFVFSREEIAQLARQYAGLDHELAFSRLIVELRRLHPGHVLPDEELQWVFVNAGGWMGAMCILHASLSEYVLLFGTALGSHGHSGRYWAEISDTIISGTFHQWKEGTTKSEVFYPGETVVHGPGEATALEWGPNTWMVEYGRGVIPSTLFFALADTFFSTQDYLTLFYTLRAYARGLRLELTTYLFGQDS
T2 sequence (O55242 whole entry): as above
Sequence of σ1R-σ2R (O55242 whole entry): as above

## CC(=O)[C@H]1CC[C@H]2[C@@H]3CCC4=CC(=O)CC[C@]4(C)[C@H]3CC[C@]12C [progesterone, Progesterone, reference compound]
[1]
  effect on σ1R-NR1 C1 association: did the opposite
[2]
  effect on σ1R-BiP association: did the opposite
[3]
  effect on σ1R-σ2R association: did the opposite

## Pregnenolone sulfate [reference compound]
[1]
  effect on σ1R-NR1 C1 association: increased σ1R-NR1 C1 complexes
[2]
  effect on σ1R-BiP association: impaired σ1R associations with σ2R and BiP
[3]
  effect on σ1R-σ2R association: impaired σ1R associations with σ2R and BiP

## ^αN-acetyl β-End 1–26: ^αN-acetylated form of β-End 1–26 (Ac-YGGFMTSEKSQTPLVTLFKNAIIKNA; UniProt P01189 237-262, looked up, fragment)
[1]
  effect on σ1R-NR1 C1 association: separated σ1Rs from NR1 C1 subunits at pM concentrations
[2]
  activity at σ1R-BiP against agonists / β-End 1–31: antagonist activity
  effect on σ1R-BiP association: promoted σ1R-BiP complexes

## ^αN-acetyl β-End 1–27: ^αN-acetylated form of β-End 1–27 (Ac-YGGFMTSEKSQTPLVTLFKNAIIKNAY; UniProt P01189 237-263, looked up, fragment)
[2]
  activity at σ1R-BiP against agonists / β-End 1–31: antagonist activity
  effect on σ1R-BiP association: promoted σ1R-BiP complexes

From PMC9820303, “^αN-Acetyl β-Endorphin Is an Endogenous Ligand of σ1Rs That Regulates Mu-Opioid Receptor Signaling by Exchanging G Proteins for σ2Rs in σ1R Oligomers” (International Journal of Molecular Sciences, 2022)
